According to patent US20190177771A1, “PNA PROBE FOR DISCRIMINATION OF QUINOLONE ANTIBIOTIC RESISTANT BACTERIA AND METHOD FOR DISCRIMINATION OF ANTIBIOTIC RESISTANT BACTERIA USING THE SAME” (priority 2017, published 2019):
Converted amounts (≈) assume the structure as drawn.

Experiments:
S. parauberis = assay: MIC measurement of S. parauberis strains for quinolone antibiotic; type: cell-based; conditions: Streptococcus parauberis
Experimental: (§1) Using S. parauberis, E. tarda, and V. harveyi samples stored in the National Institute of Fisheries Science, MIC values were measured.

E. tarda = assay: MIC measurement of E. tarda strains for quinolone antibiotics; type: cell-based; conditions: Edwardsiella tarda
Experimental: as §1

V. harveyi = assay: MIC measurement of V. harveyi strains for quinolone antibiotics; type: cell-based, Vibrio harveyi; conditions: for MIC: Vibrio harveyi
Experimental: as §1

[1] = E. tarda strain FP2074, gyrA Arg83
[2] = E. tarda strain FP2130, gyrA Arg83
[3] = E. tarda strain FP2240, gyrA Ser83
[4] = E. tarda strain FP2243, gyrA Arg83
[5] = E. tarda strain FP3071, gyrA Arg83
[6] = E. tarda strain FP3139, gyrA Ile83
[7] = E. tarda strain FPa4445, gyrA Arg83
[8] = V. harveyi strain FP4541, gyrA Ile83
[9] = V. harveyi strain FP3023, gyrA Ser83
[10] = V. harveyi strain FP3031, gyrA Ser83
[11] = V. harveyi strain FP3457, gyrA Ser83
[12] = V. harveyi strain FP7021, gyrA Ser83
[13] = V. harveyi strain FP8045, gyrA Ser83

SMILES	MIC (S. parauberis; S. parauberis strain FP3059, gyrA Ser81) [µg/mL]	MIC (S. parauberis; S. parauberis strain FP3227, gyrA Ser81) [µg/mL]	MIC (S. parauberis; S. parauberis strain FP4029, gyrA Ser81) [µg/mL]	MIC (S. parauberis; S. parauberis strain FP4031, gyrA Ser81) [µg/mL]	MIC (S. parauberis; S. parauberis strain FP5227, gyrA Ser81) [µg/mL]	MIC (S. parauberis; S. parauberis strain FPa4533, gyrA Leu81) [µg/mL]	MIC (E. tarda; [1]) [µg/mL]	MIC (E. tarda; [2]) [µg/mL]	MIC (E. tarda; [3]) [µg/mL]	MIC (E. tarda; [4]) [µg/mL]	MIC (E. tarda; [5]) [µg/mL]	MIC (E. tarda; [6]) [µg/mL]	MIC (E. tarda; [7]) [µg/mL]	susceptibility of the strain to the antibiotic, in words (V. harveyi; [8])	MIC (V. harveyi; [9]) [µg/mL]	MIC (V. harveyi; [10]) [µg/mL]	MIC (V. harveyi; [11]) [µg/mL]	MIC (V. harveyi; [8]) [µg/mL]	MIC (V. harveyi; [12]) [µg/mL]	MIC (V. harveyi; [13]) [µg/mL]
O=C(O)c1cn(C2CC2)c2cc(N3CCNCC3)c(F)cc2c1=O [Cipfloxacin, ciprofloxacin]	0.13 (≈ 0.392 µM)	1 (≈ 3.02 µM)	0.5 (≈ 1.51 µM)	0.25 (≈ 0.754 µM)	0.06 (≈ 0.181 µM)	2 (≈ 6.04 µM)	0.13 (≈ 0.392 µM)	1 (≈ 3.02 µM)	< 0.06	0.5 (≈ 1.51 µM)	0.25 (≈ 0.754 µM)	4 (≈ 12.1 µM)	2 (≈ 6.04 µM)							
CC1CCc2cc(F)cc3c(=O)c(C(=O)O)cn1c23 (centres unmarked) [Flumequine]							8 (≈ 30.6 µM)	64 (≈ 245 µM)	1 (≈ 3.83 µM)	32 (≈ 122 µM)	16 (≈ 61.2 µM)	≥ 512	32 (≈ 122 µM)	resistance	1 (≈ 3.83 µM)	2 (≈ 7.66 µM)	2 (≈ 7.66 µM)	16 (≈ 61.2 µM)	1 (≈ 3.83 µM)	2 (≈ 7.66 µM)
CCn1cc(C(=O)O)c(=O)c2cc3c(cc21)OCO3 [Oxolinic acid]							4 (≈ 15.3 µM)	64 (≈ 245 µM)	< 0.25	16 (≈ 61.2 µM)	8 (≈ 30.6 µM)	256 (≈ 980 µM)	8 (≈ 30.6 µM)	resistance	1 (≈ 3.83 µM)	1 (≈ 3.83 µM)	2 (≈ 7.66 µM)	8 (≈ 30.6 µM)	1 (≈ 3.83 µM)	1 (≈ 3.83 µM)
